Laboratory results reported in publication PMC6934184, “Selective DNA-PKcs inhibition extends the therapeutic index of localized radiotherapy and chemotherapy” (The Journal of Clinical Investigation, 2019).

Target: T1, FGFR4 (Homo sapiens, UniProt P22455)
T1 construct: purchased Thermo Fisher Scientific (Life Technologies) SelectScreen
Assay: SelectScreen Z'LYTE
Type: biochemical
Summary of the method: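 SelectScreen broad panel; activity (Z'LYTE, Adapta) plus binding formats. ATP: Km app for CSF1R Z'LYTE; 10 for CAMK1 Adapta. Readout = % per kinase.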

T1 sequence (P22455 22-802): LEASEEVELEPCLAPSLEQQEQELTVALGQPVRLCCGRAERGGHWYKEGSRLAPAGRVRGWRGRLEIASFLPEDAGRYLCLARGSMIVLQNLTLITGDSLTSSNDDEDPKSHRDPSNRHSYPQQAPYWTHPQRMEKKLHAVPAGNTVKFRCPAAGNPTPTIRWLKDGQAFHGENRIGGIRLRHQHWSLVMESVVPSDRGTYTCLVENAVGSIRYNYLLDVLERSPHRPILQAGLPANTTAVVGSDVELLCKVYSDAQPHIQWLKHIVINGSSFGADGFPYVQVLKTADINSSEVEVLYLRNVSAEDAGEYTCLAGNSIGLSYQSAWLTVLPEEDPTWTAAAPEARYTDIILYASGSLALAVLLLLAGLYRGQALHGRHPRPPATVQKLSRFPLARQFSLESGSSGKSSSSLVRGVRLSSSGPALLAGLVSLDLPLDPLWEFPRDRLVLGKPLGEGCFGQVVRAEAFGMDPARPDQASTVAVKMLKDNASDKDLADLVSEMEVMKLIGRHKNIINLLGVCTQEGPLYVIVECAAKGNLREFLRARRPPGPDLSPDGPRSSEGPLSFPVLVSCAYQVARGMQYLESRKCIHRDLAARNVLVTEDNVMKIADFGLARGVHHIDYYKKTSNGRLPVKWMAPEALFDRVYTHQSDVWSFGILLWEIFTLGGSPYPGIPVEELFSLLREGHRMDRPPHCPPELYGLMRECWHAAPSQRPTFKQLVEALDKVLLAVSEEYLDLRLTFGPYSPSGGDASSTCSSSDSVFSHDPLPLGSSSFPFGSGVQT

## CN(C(=O)CN1CCOCC1)c1ccc2sc3c(-c4cccc5c(=O)cc(N6CC7CCC(C6)O7)oc45)cccc3c2c1 [NU5455]
  inhibition at 1 µM: -3.1%
